Data reported in PubChem BioAssay (NCI).
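Exposure lasted 48 hours, with cells grown in 96-well plates and compounds tested at five concentrations. GI50 marks 50% less growth. At the TGI there is no net growth.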

What was measured:
Assay in all cases: NCI-60 cell line screen, 48 h
SF-539 CNS = system: SF-539 CNS
MALME-3M melanoma = system: MALME-3M melanoma
HCT-116 colon = system: HCT-116 colon
SF-268 CNS = system: SF-268 CNS
NCI-H226 lung = system: NCI-H226 lung
M14 melanoma = system: M14 melanoma
SK-MEL-5 melanoma = system: SK-MEL-5 melanoma
SF-295 CNS = system: SF-295 CNS
K-562 leukemia = system: K-562 leukemia
KM12 colon = system: KM12 colon

Structure (SMILES) | TGI (SF-539 CNS) [µM] | TGI (MALME-3M melanoma) [µM] | TGI (HCT-116 colon) [µM] | TGI (SF-268 CNS) [µM] | TGI (NCI-H226 lung) [µM] | TGI (M14 melanoma) [µM] | TGI (SK-MEL-5 melanoma) [µM] | TGI (SF-295 CNS) [µM] | TGI (K-562 leukemia) [µM] | TGI (KM12 colon) [µM] | GI50 (SF-539 CNS) [µM] | GI50 (MALME-3M melanoma) [nM] | GI50 (HCT-116 colon) [µM] | GI50 (SF-268 CNS) [µM] | GI50 (NCI-H226 lung) [µM] | GI50 (M14 melanoma) [µM] | GI50 (SK-MEL-5 melanoma) [nM] | GI50 (SF-295 CNS) [nM] | GI50 (K-562 leukemia) [nM] | GI50 (KM12 colon) [nM]
COc1cc2oc(=O)cc(C)c2cc1[N+](=O)[O-] | 57.7 | 49.5 | 32.3 | 45 | 26.9 | 37.9 | > 65.1 | > 100 | > 100 | > 57.3 |  |  |  |  |  |  |  |  |  | 
CN/N=C(/Cc1occc(=O)c1O)C(=O)Nc1ccc(C)c(C)c1 | > 100 | > 100 | > 100 | > 100 | > 100 | > 100 | > 100 | > 100 | > 100 | > 100 |  |  |  |  |  |  |  |  |  | 
O=C(Nc1ccc(Cl)c([N+](=O)[O-])c1)Nc1nc2ccccc2s1 | 16.9 | 7.36 | 14.9 | 16.6 | 17.3 | 33 | 4.17 | 5.41 | > 100 | 8.32 | 3.77 | 2620 | 3.57 | 4.49 | 4.06 | 11.3 | 1880 | 2010 | 4150 | 2820
CC(=O)Nc1ccc(/C=C(\NC(=O)c2ccccc2)c2nc3ccc4c(c3[nH]2)C(=O)c2ccccc2C4=O)cc1 | > 100 | > 100 | > 100 | > 100 | > 100 | > 100 | > 100 | > 100 | > 100 |  |  |  |  |  |  |  |  |  |  | 
COc1cccc(N2C(=O)c3c(c4[nH]c5ccccc5c4c4ccc(C(C)(C)C)cc34)C2=O)c1 | > 100 | > 100 | > 100 | > 100 | > 100 | > 100 | > 100 | > 100 | > 100 | > 100 |  |  |  |  |  |  |  |  |  | 
COc1nc2c(OC)cccc2c(OC)c1C=O | > 100 | > 100 | > 100 |  | > 100 | > 100 | > 100 | > 100 | > 100 | > 100 |  |  |  |  |  |  |  |  |  | 
CN1CCN(Cc2ccc(-c3cc4ncnc(Nc5ccc(OCc6cccc(F)c6)c(Cl)c5)c4s3)o2)CC1 | 8.55 | 9.69 | 7.42 | 8.7 | 10.4 | 8.81 | 7.54 | 10.4 | 6.85 | 8.19 | 4.17 | 4560 | 3.62 | 4.07 | 4.39 | 4.63 | 3770 | 5060 | 2080 | 4440
CC(C)C[C@H](NC(=O)[C@H](Cc1ccccc1)n1ccc(N2CCCCC2)cc1=O)B(O)O | 0.604 | 7.95 | 2.55 | 3.85 | 0.423 | 3.88 | 3.11 | 4.51 | > 100 | 4.38 | 0.206 | 682 | 0.343 | 0.699 | 0.188 | 0.356 | 367 | 585 | 1080 | 1330
